Assay results published in patent US20200024246A1, “POGOSTONE DERIVATIVES AND METHODS OF USING THE SAME” (Hamyard Associates LLC, priority 2018, published 2020).
Values after ≈ are worked out from the molar mass of the structure shown. “Also recorded” adds a separate entry of the source. Read-outs that look alike come from different tables or passages of the source.

Tests used:
adult female mosquitoes = experiment: whole plant or invertebrate; conditions: for pest or weed control at 0.5 % / pest or weed control at 1.5 % / mortality at 0.5 % / mortality at 1.5 %: Culicidae; for pest or weed control at 0.5 % / pest or weed control at 1.5 %: 1 h; for pest or weed control at 0.5 %: read-out: Knockdown at 0.5%; for pest or weed control at 1.5 %: read-out: Knockdown at 1.5%; for mortality at 0.5 % / mortality at 1.5 % / LD50: 24 h; for mortality at 0.5 %: read-out: Mortality at 0.5%; for mortality at 1.5 %: read-out: Mortality at 1.5%; for Percent Knockdown at 1 Hour / Percent Mortality: mosquitoes; for Percent Knockdown at 1 Hour: 0.5% solutions; for Percent Mortality: 24 hours; for ranking in knockdown and mortality screenings: words; for LD50: read-out: 24-hour Mortality LD50 (μg/g mosquito)
Experimental: The first group of DHAA-based derivatives that were tested included Formula A2, Formula B3, Formula C3, and Formula D3. A solution of 0.5% or 1.5% of each of these compounds was applied to the mosquitoes, as described above. […] Acetone was used as a control.

house flies = experiment: Knockdown and mortality of DHAA-based derivatives on house flies; assay type: in vivo, house fly
From the text: Accordingly, further derivatives with structures similar to Formula C3 were synthesized and tested for knockdown potential and mortality in house flies and mosquitoes using an experimental design similar to the one described above. These compounds include Formula C5, Formula C6, Formula C7, Formula C8, Formula C9, and Formula C10.

adult flies = experiment: Contact toxicity on treated filter paper; assay type: in vivo; conditions: filter paper treated with 1 mL in acetone; 24 hours
Experimental: Filter papers were treated with 1 mL of the disclosed compounds in acetone at varying concentrations, and the filter papers were placed in a dish. Ten adult flies were added to each dish and a sugar pad was added to each dish to ensure that any mortality could be attributed to the compound instead of starvation. Mortality was assessed at 24 hours.

adult, female mosquitoes = experiment: Topical application on adult female mosquitoes (24-h mortality, 1-h knockdown); assay type: in vivo, mosquito; conditions: for ED50: read-out: KD50 (ug/g mosquito); for LD50: read-out: LD50 (ug/g mosquito)
[1] = test system: 3-4 instar Aedes aegypti larvae; experiment: Mosquito larvicide bioassay; assay type: in vivo; conditions: Aedes aegypti, 24 h
Experimental: Mosquito larvicide bioassays were performed by introducing various concentrations of test compounds (pyrone derivatives and rotenone) into acetone at various concentrations. 200 uL of these solutions were added to individual cups containing 10, 3-4 instar Aedes aegypti larvae and 25 mL of DI water. 2 mg of Tetramin™ was provided to each cup as a food source. […] Ataxia was used as the indicator of larval mortality. At least 5 concentrations were used which caused between 10 and 90% mortality. LC50 values were calculated using a PROC PROBIT model in SAS 9.4.

[2] = Mosquito Knockdown Properties (1 hour), topical application

## Cc1cc2c(c(=O)o1)C(=O)CC(C(C)C)O2 (stereo not shown) [Formula C16]
Adult female mosquitoes; topical
  pest or weed control at 0.5 %: 0%
  pest or weed control at 1.5 %: 7%
  mortality at 0.5 %: 3%
  mortality at 1.5 %: 3%

## COCC(=O)c1c(O)cc(C)oc1=O [Formula C9]
Adult female mosquitoes
  Mosquito Knockdown at 0.5% concentration: 37%
  Mosquito Mortality at 0.5% concentration: 73%
  Mosquito Knockdown at 1.5% concentration: 53%
  Mosquito Mortality at 1.5% concentration: 70%
House flies
  House Fly Knockdown at 0.5% concentration: 0%
  House Fly Mortality at 0.5% concentration: 5%
  House Fly Knockdown at 1.5% concentration: 1%
  House Fly Mortality at 1.5% concentration: 6%

## Cc1cc(O)c(C(=O)Nc2ccccc2)c(=O)o1 [Formula A3]
Adult female mosquitoes
  Percent Knockdown at 1 Hour: 4%
Adult female mosquitoes; at 0.5%
  Percent Mortality: 5%
Adult female mosquitoes; at 1.5%
  Percent Mortality: 19%

## C=C(C)C(O)CC(=O)c1c(O)cc(C)oc1=O (stereo not shown) [Formula C19]
Adult female mosquitoes; topical
  pest or weed control at 0.5 %: 83%
  pest or weed control at 1.5 %: 83%
  mortality at 0.5 %: 83%
  mortality at 1.5 %: 77%
Adult female mosquitoes
  ranking in knockdown and mortality screenings: appear to be the most potent insecticidal compounds
Adult flies
  percent mortality, 0.10% Concentration: 0%
  percent mortality, 0.25% Concentration: 0%
  percent mortality, 0.50% Concentration: 0%

## Cc1cc(O)c(C(=O)CSCC(=O)O)c(=O)o1 [Formula C6]
Adult female mosquitoes
  Mosquito Knockdown at 0.5% concentration: 27%
  Mosquito Mortality at 0.5% concentration: 43%
  Mosquito Knockdown at 1.5% concentration: 18%
  Mosquito Mortality at 1.5% concentration: 15%
House flies
  House Fly Knockdown at 0.5% concentration: 2.5%
  House Fly Mortality at 0.5% concentration: 10%
  House Fly Knockdown at 1.5% concentration: 7%
  House Fly Mortality at 1.5% concentration: 6%

## CCOC(=O)/C(O)=C/C(=O)c1c(O)cc(C)oc1=O [Formula 8]
adult, female mosquitoes; [2]
  ED50: > 1500 mg/kg
adult, female mosquitoes; Mosquito Toxicity (24 hours), topical application to pronotum
  LD50: > 1500 mg/kg

## CCCCCCCCCC(=O)c1c(O)c2ccccc2n(C)c1=O [Formula 20]
adult, female mosquitoes; topical, 24 h
  LD50: > 1500 mg/kg

## Cc1cc(O)c(C(=O)COCC(=O)O)c(=O)o1 [Formula C14]
Adult female mosquitoes; topical
  pest or weed control at 0.5 %: 7%
  pest or weed control at 1.5 %: 0%
  mortality at 0.5 %: 13%
  mortality at 1.5 %: 40%

## C=C(C)[C@H]1Cc2c(ccc3c2O[C@@H]2COc4cc(OC)c(OC)cc4[C@@H]2C3=O)O1 [Rotenone, reference compound]
[1]
  LC50: 0.35 µg/mL (≈ 0.887 µM)

## CCCCCCCCCC(=O)c1c(O)c2ccccc2oc1=O [Formula 18]
adult, female mosquitoes; topical, 1 h
  ED50: > 1500 mg/kg
adult, female mosquitoes; topical, 24 h
  LD50: > 1500 mg/kg

## Cc1cc(O)c(C(=O)CCC(O)CBr)c(=O)o1 (stereo not shown) [Formula C20]
Adult female mosquitoes; topical
  pest or weed control at 0.5 %: 17%
  pest or weed control at 1.5 %: 10%
  mortality at 0.5 %: 10%
  mortality at 1.5 %: 20%

## CCOCC(=O)c1c(O)cc(C)oc1=O [Formula C8]
Adult female mosquitoes
  Mosquito Knockdown at 0.5% concentration: 43%
  Mosquito Mortality at 0.5% concentration: 73%
  Mosquito Knockdown at 1.5% concentration: 80%
  Mosquito Mortality at 1.5% concentration: 80%
  ranking in knockdown and mortality screenings: performed the best in the initial knockdown and mortality screenings
Adult female mosquitoes; mosquito, topical, 1 hour
  1-hour Knockdown EC50 (μg/g mosquito): 661 μg/g mosquito
Adult female mosquitoes; topical
  LD50: 256 mg/kg
House flies
  House Fly Knockdown at 0.5% concentration: 0%
  House Fly Mortality at 0.5% concentration: 3%
  House Fly Knockdown at 1.5% concentration: 2%
  House Fly Mortality at 1.5% concentration: 13%

## CC(=O)CCC(=O)c1c(O)cc(C)oc1=O [Formula C17]
Adult female mosquitoes; topical
  pest or weed control at 0.5 %: 27%
  pest or weed control at 1.5 %: 13%
  mortality at 0.5 %: 47%
  mortality at 1.5 %: 7%

## CC(=O)c1c(O)c2ccccc2oc1=O [Formula C27]
Adult female mosquitoes; topical
  pest or weed control at 0.5 %: 100%
  pest or weed control at 1.5 %: 73%
  mortality at 0.5 %: 97%
  mortality at 1.5 %: 83%

## CCCCCCCC(=O)c1c(O)c2ccccc2oc1=O [Formula 25]
adult, female mosquitoes; topical, 1 h
  ED50: > 1500 mg/kg
adult, female mosquitoes; topical, 24 h
  LD50: > 1500 mg/kg

## Cc1cc(O)c(C(=O)COC(C)C)c(=O)o1 [Formula C3]
Adult female mosquitoes
  Percent Knockdown at 1 Hour: 98%
  ranking in knockdown and mortality screenings: performed the best in terms of highest percent knockdown and mortality; also recorded: performed the best in the initial knockdown and mortality screenings
Adult female mosquitoes; at 0.5%
  Percent Mortality: 89%
Adult female mosquitoes; at 1.5%
  Percent Mortality: 88%
Adult female mosquitoes; topical
  LD50: 183 mg/kg

## Cc1ccc(C(C)C)c(O)c1 [Thymol, reference compound]
adult, female mosquitoes; [2]
  ED50: 1700 mg/kg

## Cc1cc(O)c(C(=O)CCC=O)c(=O)o1 [Formula C18]
Adult female mosquitoes; topical
  pest or weed control at 0.5 %: 3%
  pest or weed control at 1.5 %: 0%
  mortality at 0.5 %: 3%
  mortality at 1.5 %: 7%
